Series [1] deals with Zika virus. The series can be described thus: Inhibition of 6-His tagged-G4SG4 fused ZIKV NS2B (49 to 95 residues) R95A mutant-NS3 (1 to 170 residue) R29G mutant expressed in Escherichia coli BL21 (DE3) assessed as covalent adduct formation using Bz-Nle-K-RR-AMC substrate preincubated for 10 mins followed by substrate addition and measured after 30 mins by LC-HRMS analysis. As to conditions: time 40.0 min.

For series [2], the system named is Zika virus. The series can be described thus: Antiviral activity against ZIKV infected in African Green monkey Vero cells assessed as reduction in viral replication. In kind it is functional, organism-based.
Series [3] is described as follows: Binding affinity to 6-His tagged-G4SG4 fused ZIKV NS2B (49 to 95 residues) R95A mutant-NS3 (1 to 170 residue) R29G mutant expressed in Escherichia coli BL21 (DE3) by surface plasmon resonance assay. Further details: species or system Zika virus.
The nature of series [4]: Inhibition of 6-His tagged-G4SG4 fused ZIKV NS2B (49 to 95 residues) R95A mutant-NS3 (1 to 170 residue) R29G mutant expressed in Escherichia coli BL21 (DE3) using Bz-Nle-K-RR-AMC substrate preincubated for 10 mins followed by substrate addition and measured after 30 mins by fluorescence assay. Further details: species or system Zika virus.
The nature of series [5]: Stability of compound assessed 6-His tagged-G4SG4 fused ZIKV NS2B (49 to 95 residues) R95A mutant-NS3 (1 to 170 residue) R29G mutant expressed in Escherichia coli BL21 (DE3) based degradation by LC-HRMS analysis. Particulars: zika virus. In kind it is ADME.
Series [6] in a line: Inhibition of 6-His tagged-G4SG4 fused WNV NS2B (1423 to 1470 residues) -NS3 (1506 to 1689 residue) using pERTKR-AMC substrate preincubated for 10 mins followed by substrate addition and measured after 30 mins by fluorescence assay. Further details: species or system West Nile virus.
In the next series the target is Trypsin (Homo sapiens, UniProt P07477+P07478+P35030). The series can be described thus: Inhibition of human trypsin. In kind it is protein assay.
The target in another series is Genome polyprotein (dengue virus type 2, UniProt P29990). The series can be described thus: Inhibition of 6-His tagged-G4SG4 fused DENV2 NS2B (1394 to 1440 residues) -NS3 (1476 to 1660 residue) expressed in Escherichia coli BL21 (DE3) using Bz-Nle-K-RR-AMC substrate preincubated for 10 mins followed by substrate addition and measured after 30 mins by fluorescence assay.

Active and inactive are the calls of the source. The calls are words filed in the database; no cut-off is given here.

Chain of Genome polyprotein (P29990 1346-1475 limits assumed): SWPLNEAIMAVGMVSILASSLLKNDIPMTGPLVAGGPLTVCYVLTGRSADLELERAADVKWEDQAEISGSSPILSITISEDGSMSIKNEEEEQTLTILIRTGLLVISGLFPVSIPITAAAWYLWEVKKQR
Chain of Genome polyprotein (P29990 1476-2093 limits assumed): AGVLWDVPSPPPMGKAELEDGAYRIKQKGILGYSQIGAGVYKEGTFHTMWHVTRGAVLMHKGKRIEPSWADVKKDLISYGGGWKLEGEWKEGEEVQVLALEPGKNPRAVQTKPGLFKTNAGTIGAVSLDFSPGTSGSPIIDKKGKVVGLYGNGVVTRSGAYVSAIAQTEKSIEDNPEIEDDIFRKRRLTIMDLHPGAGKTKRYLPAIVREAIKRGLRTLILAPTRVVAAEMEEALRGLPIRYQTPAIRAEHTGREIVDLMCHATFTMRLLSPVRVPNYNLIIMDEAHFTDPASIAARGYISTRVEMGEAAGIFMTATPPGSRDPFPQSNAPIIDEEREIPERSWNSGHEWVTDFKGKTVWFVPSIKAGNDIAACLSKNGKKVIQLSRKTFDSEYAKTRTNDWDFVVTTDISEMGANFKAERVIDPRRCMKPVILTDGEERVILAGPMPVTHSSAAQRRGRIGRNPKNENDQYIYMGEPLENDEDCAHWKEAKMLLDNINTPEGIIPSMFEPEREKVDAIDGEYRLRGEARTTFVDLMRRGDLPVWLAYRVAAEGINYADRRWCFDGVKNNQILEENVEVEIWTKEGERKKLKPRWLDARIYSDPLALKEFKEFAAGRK

As to `CC(=O)N[C@@H](CCCCN)C(=O)N[C@@H](CCCCN)C(=O)N[C@H](C(=O)NCc1ccc(OCc2ccc(C(F)(F)F)cc2)cc1)c1ccccc1`, in the series on Zika virus [1], the inhibition result was “Active”. The EC50 in the series on Zika virus [2] stood at 11200 nM. Moreover, in series [3], binding was put at a Kd of 23 nM. In series [4], this compound came in with an IC50 of 41 nM and an inhibition constant (Ki) of 14 nM. The Stability entry in series [5] is on record as “Stable”.
On to `CC(=O)N[C@@H](CCCCN)C(=O)N[C@@H](CCCCN)C(=O)N[C@H](C(=O)NCc1ccccc1)c1ccc(OCc2ccc(C(F)(F)F)cc2)cc1`, for which the IC50 in series [6] was found to be 800 nM; on Trypsin, 2300 nM; at Genome polyprotein, 200 nM; in series [4] it was 28 nM. The inhibition result in the series with Zika virus [1] is “Active”. Besides, the concentration for a half-maximal effect (EC50) in the series with Zika virus [2] stood at 8500 nM. This compound also had a dissociation constant (Kd) in series [3] of 11 nM. For the same compound, in series [4], the affinity corresponds to a Ki of 7 nM. For the same compound, in series [5], the Stability entry was “Stable”.

For orientation: EC50 means the concentration at which the effect is half-maximal. As a reminder, the Kd is the concentration at which binding is half-saturated. As usually defined, the IC50 is the concentration needed to halve the response being measured. A word on the Ki: it is the equilibrium dissociation constant of an inhibitor or competing ligand from its target.
